Columns and labels:
Format in all cases: physicochemical
[1] = Dissolution behaviour of tablets (Paddle method USP XXIV, SIFmod); settings: based on a 25 mg dosage; 1 litre SIFmod pH 6.8; tablet test
Procedure: (§1) The medium used for the dissolution behaviour test is 1 litre of a surfactant-free, modified medium according to “Intestinal Fluid, Simulated, TS” from USP XXIV (SIFmod). KH2PO4 is replaced by NaH2PO4. Pancreatin is not added (pH 6.8).
The dissolution test is carried out according to the “Paddle method” of USP XXIV at 37° C. and at a stirring rate of 50 rpm with a Sotax AT6 (Sotax, Basle, Switzerland). The tablets were added and the amounts of active ingredient released were analysed.
The average amounts of active ingredient released from each of 3 tablets of 25 mg PKC412 according to examples C4-C6 are given in Table 8 as a percentage of the theoretical content.

[2] = Dissolution behaviour of capsules (Paddle method USP XXIV, SIFmod); settings: based on a 25 mg dosage; 1 litre SIFmod pH 6.8; capsule test
Procedure: as §1
The dissolution test is carried out according to the “Paddle method” of USP XXIV at 37° C. and at a stirring rate of 50 rpm with a Sotax AT6 (Sotax, Basle, Switzerland). The capsules are placed in a teflon-coated sinker (ATN, Pfaffenheim, France), in order to allow them to remain on the bottom of the dissolution container.
The average amounts of active ingredient released from each of 3 capsules of 25 mg PKC412 according to examples C1 and C2 are given in Table 7 as a percentage of the theoretical content.

[3] = Water solubility of PKC412
Procedure: (water solubility: <0.1 mg/l), which is referred to hereinafter as PKC412.

comparable solubility of untreated PKC412 [1]: < 0.4 % of the theoretical content
comparable solubility of untreated PKC412 [2]: < 0.4 % of the theoretical content
solubility [3]: < 0.1 µg/mL
SMILES: CO[C@@H]1[C@H](N(C)C(=O)c2ccccc2)C[C@H]2O[C@]1(C)n1c3ccccc3c3c4c(c5c6ccccc6n2c5c31)C(=O)NC4 [PKC412]
